The test system of one series is MDA-MB-231. Briefly: Anticancer activity against human MDA-MB-231 cells assessed as reduction in cell viability at 40 uM measured after 48 hrs by CCK-8 method relative to control. The class given is functional.
The next series deals with Bacillus subtilis. Briefly: Antimicrobial activity against Bacillus subtilis ATCC 6051 assessed as reduction in microbial growth by broth microdilution method. Format: functional.
Series [1] concerns Staphylococcus aureus. The series can be described thus: Antimicrobial activity against Staphylococcus aureus LV-B1 assessed as reduction in microbial growth by broth microdilution method. Format: functional.
The next series has as its system Enterococcus. The series can be described thus: Antimicrobial activity against Vancomycin-resistant Enterococci assessed as reduction in microbial growth by broth microdilution method. Format: functional.
The test system of series [2] is Staphylococcus aureus. The series can be described thus: Antimicrobial activity against methicillin resistant Staphylococcus aureus assessed as reduction in microbial growth by broth microdilution method. Format: functional.
Series [3] has as its system RAW264.7. Briefly: Antiinflammatory activity in mouse RAW264.7 assessed as reduction in LPS-induced NO production incubated for 24 hrs by Griess method relative to control. Format: functional. Set-up: concentration or dose not given beside the values.
Another series concerns A549. Briefly: Anticancer activity against human A549 cells assessed as reduction in cell viability at 40 uM measured after 48 hrs by CCK-8 method relative to control. Format: functional.
In another series the test system is Xanthomonas oryzae. The series can be described thus: Antimicrobial activity against Xanthomonas oryzae ATCC 35933 assessed as reduction in microbial growth by broth microdilution method. Format: functional.
The next series concerns MCF7. The series can be described thus: Anticancer activity against human MCF7 cells assessed as reduction in cell viability at 40 uM measured after 48 hrs by CCK-8 method relative to control. Format: functional.
The next series has as its system Staphylococcus capitis. The series can be described thus: Antimicrobial activity against Staphylococcus capitis W7 assessed as reduction in microbial growth by broth microdilution method. Format: functional.
In a further series the test system is Micrococcus luteus. The series can be described thus: Antimicrobial activity against Micrococcus luteus ATCC 4685 assessed as reduction in microbial growth by broth microdilution method. Format: functional.
The next series relates to Shigella sonnei. The series can be described thus: Antimicrobial activity against Shigella sonnei ZD12 assessed as reduction in microbial growth by broth microdilution method. Format: functional.
A further series concerns HepG2. The series can be described thus: Anticancer activity against human HepG2 cells assessed as reduction in cell viability at 40 uM measured after 48 hrs by CCK-8 method relative to control. The class given is functional.
A further series concerns Paracidovorax avenae. The series can be described thus: Antimicrobial activity against Acidovorax avenae ATCC 19307 assessed as reduction in microbial growth by broth microdilution method. The class given is functional.
A further series has as its system Klebsiella pneumoniae. Briefly: Antimicrobial activity against Klebsiella pneumoniae W5 assessed as reduction in microbial growth by broth microdilution method. The class given is functional.
Series [4] has as its system RAW264.7. The series can be described thus: Cytotoxicity against mouse RAW264.7 cells measured after 24hrs by CCK-8 method relative to control. The class given is toxicity, cell-based. On the set-up: concentration or dose not given beside the values. The settings on record: raw264.7, 24 h.
In another series the test system is SW480. Briefly: Anticancer activity against human SW480 cells assessed as reduction in cell viability at 40 uM measured after 48 hrs by CCK-8 method relative to control. Format: functional.
A further series has as its system Pseudomonas syringae. Briefly: Antimicrobial activity against Pseudomonas syringae ATCC-BAA-2502 assessed as reduction in microbial growth by broth microdilution method. Format: functional.
The test system of another series is Escherichia coli. The series can be described thus: Antimicrobial activity against Escherichia coli CGMCC 1.3344 assessed as reduction in microbial growth by broth microdilution method. Format: functional.

Structures are written as SMILES.

On to `CC1=C[C@H]2[C@H](C(C)C)CC[C@@](C)(O)[C@H]2C[C@H]1O`, for which the Activity is listed as -8.69% in the series with MDA-MB-231; -6.33% in the series with RAW264.7 [3]; 5.64% in the series on A549; 12.99% in the series on MCF7; -5.25% with HepG2; 87.41% in the series on RAW264.7 [4]. Further, the Activity in the series with SW480 is 4.58%. In addition, the MIC in the series on Bacillus subtilis, with Staphylococcus aureus [1], in the series on Enterococcus, with Staphylococcus aureus [2], in the series with Xanthomonas oryzae and with Staphylococcus capitis was above 128 µg/mL throughout. The MIC with Micrococcus luteus, with Shigella sonnei, in the series with Paracidovorax avenae, with Klebsiella pneumoniae, in the series with Pseudomonas syringae and in the series on Escherichia coli was above 128 µg/mL in each case.
`C/C1=C\CC/C(CO)=C\[C@H]2[C@H](C[C@H]1O)C2(C)C`: the Activity in the series with MDA-MB-231 is listed as 6.53%; in the series with RAW264.7 [3] it was -1.42%; in the series on A549, 7.59%; in the series on MCF7, 15.37%; in the series with HepG2 it was 6.04%; with RAW264.7 [4], 83.59%. In addition, the Activity in the series with SW480 is recorded as 46.36%. For the same compound, the MIC in the series on Bacillus subtilis, with Staphylococcus aureus [1], in the series on Enterococcus, in the series with Staphylococcus aureus [2], in the series with Xanthomonas oryzae and with Staphylococcus capitis was above 128 µg/mL throughout. The minimal inhibitory concentration (MIC) in the series with Micrococcus luteus, with Shigella sonnei, in the series on Paracidovorax avenae, in the series with Klebsiella pneumoniae, in the series with Pseudomonas syringae and in the series with Escherichia coli was above 128 µg/mL throughout.
As to `C[C@H]1C[C@H](O)[C@@H]2[C@H]3[C@H]1OC(C)(C)[C@@H]3CC[C@@]2(C)O`, the Activity in the series on MDA-MB-231 was 1.66%; in the series on RAW264.7 [3] it was 0.67%; with A549 it was 0.07%; in the series with MCF7, 8.24%; in the series with HepG2 it was -8.63%; in the series on RAW264.7 [4], 84.88%. The Activity with SW480 is -5.32%. In addition, the MIC in the series on Bacillus subtilis, in the series with Staphylococcus aureus [1], in the series with Enterococcus, with Staphylococcus aureus [2], in the series with Xanthomonas oryzae and in the series on Staphylococcus capitis was above 128 µg/mL each time. The MIC in the series on Micrococcus luteus, with Shigella sonnei, in the series with Paracidovorax avenae, in the series with Klebsiella pneumoniae, in the series on Pseudomonas syringae and with Escherichia coli was above 128 µg/mL in each case.
Turning to `C[C@@H]1C(=O)C[C@@H]2[C@H]3[C@H]1OC(C)(C)[C@H]3CC[C@@]2(C)O`, the Activity in the series with MDA-MB-231 was -3.76%; in the series on RAW264.7 [3], -1.87%; in the series with A549, 0.67%; in the series on MCF7, 9.07%; with HepG2, -1.81%; in the series on RAW264.7 [4] it was 91.87%. Moreover, the Activity in the series on SW480 is 13.67%. Also, the MIC with Bacillus subtilis, in the series on Staphylococcus aureus [1], with Enterococcus, with Staphylococcus aureus [2], in the series with Xanthomonas oryzae and with Staphylococcus capitis was above 128 µg/mL each time. The MIC with Micrococcus luteus, with Shigella sonnei, with Paracidovorax avenae, in the series on Klebsiella pneumoniae, in the series on Pseudomonas syringae and in the series on Escherichia coli was above 128 µg/mL throughout.

Source of the values: ChEMBL document CHEMBL5357033, “Discovery of Diverse Sesquiterpenoids from Crossiella cryophila through Genome Mining and NMR Tracking” (J Nat Prod, 2024).
